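Assay format: 96-well plates, 48-hour exposure. The concentration for 50% growth inhibition is given as GI50.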 Active and inactive are the calls of the source. Rule as the data show it: active = GI50 up to about 1.1 µM and inactive = higher.
How the values were obtained:
Test in all cases: DTP human tumour cell line panel, 48 h
RXF 631 = system: RXF 631
DMS-273 = system: DMS-273
HOP-18 = system: HOP-18
XF498 = system: XF498
KM-20L2 = system: KM-20L2
DMS-114 = system: DMS-114
SNB-78 = system: SNB-78
LXFL 529 = system: LXFL 529

Measured: GI50

C/C(CC(=O)NC1=CC=C(NC(=O)C/C(C)=N\Nc2ccccc2)CC1)=N/Nc1ccccc1
inactive: RXF 631 41.4 µM | DMS-273 27 µM | HOP-18 > 100 µM | XF498 > 100 µM | KM-20L2 > 100 µM | DMS-114 > 100 µM | SNB-78 > 100 µM | LXFL 529 > 100 µM

Nc1nncc2c1c(Br)cn2C1OC(CO)C(O)C1O (stereo not drawn)
inactive: RXF 631 2.84 µM | DMS-273 7.23 µM | HOP-18 > 67.6 µM | XF498 > 41.7 µM | KM-20L2 44 µM | DMS-114 9.35 µM | SNB-78 > 66.4 µM | LXFL 529 23.7 µM

O=C(CCCCCCCCC(=O)OCC1OC(n2cnc3c(=O)[nH]cnc32)C(O)C1O)OCC1OC(n2cnc3c(=O)[nH]cnc32)C(O)C1O (stereo not drawn)
inactive: DMS-273 > 100 µM | HOP-18 > 100 µM | XF498 > 100 µM | KM-20L2 > 100 µM | DMS-114 > 100 µM | SNB-78 > 100 µM

Cc1c(Cl)cccc1NC(=O)/C(Cl)=C(\Cl)C(=O)O
inactive: RXF 631 24.8 µM | DMS-273 20.9 µM | HOP-18 17.5 µM | KM-20L2 21.6 µM | DMS-114 21.2 µM | SNB-78 20 µM | LXFL 529 19.8 µM

COCCCNC(=O)CC(=O)NCCCOC
inactive: RXF 631 > 100 µM | HOP-18 > 100 µM | KM-20L2 > 100 µM | DMS-114 > 100 µM | SNB-78 > 100 µM | LXFL 529 > 100 µM

C=C[C@]1(C)CCC2=C(CCC3C2(C)CCC[C@]3(C)CO)C1 (stereo partly drawn)
inactive: RXF 631 51.1 µM | DMS-273 41.8 µM | HOP-18 > 100 µM | XF498 52.6 µM | KM-20L2 20.2 µM | DMS-114 31.2 µM | SNB-78 79.4 µM | LXFL 529 56.1 µM

CCNC(=O)O/N=C1\CCC2[C@@H]3CC=C4C[C@@H](OC5CCCCO5)CC[C@]4(C)C3CC[C@]12C (stereo partly drawn)
inactive: RXF 631 2.75 µM | DMS-273 1.52 µM | HOP-18 1.42 µM | KM-20L2 2.64 µM | DMS-114 1.26 µM | SNB-78 2.24 µM | LXFL 529 1.2 µM

CCOC(=O)N1N=NC2C3OC(C[C@@]3(C#N)OC(C)=O)[C@H]21 (stereo partly drawn)
inactive: RXF 631 > 100 µM | DMS-273 > 100 µM | HOP-18 > 100 µM | XF498 > 100 µM | KM-20L2 > 100 µM | SNB-78 > 100 µM | LXFL 529 > 100 µM

COC(=O)C(Cc1ccccc1)NC(=O)Cn1ccnc1[N+](=O)[O-] (stereo not drawn)
inactive: RXF 631 > 100 µM | DMS-273 > 100 µM | HOP-18 67.8 µM | XF498 > 100 µM | KM-20L2 > 100 µM | DMS-114 > 100 µM | LXFL 529 > 100 µM

O=C(/C=C\c1ccccc1O)c1ccc(O)cc1O
inactive: RXF 631 > 100 µM | DMS-273 > 100 µM | HOP-18 55.7 µM | KM-20L2 > 100 µM | DMS-114 > 100 µM | SNB-78 > 100 µM | LXFL 529 > 100 µM

CCCCCC[C@@H]1CCC2C(CO)[C@@H](O)CC[C@@H]2C1 (stereo partly drawn)
inactive: DMS-273 20.2 µM | HOP-18 22.4 µM | XF498 24.7 µM | KM-20L2 18.4 µM | DMS-114 19.6 µM | SNB-78 19.2 µM | LXFL 529 18.5 µM

N#CC1(C2CC(=O)N(c3ccccc3)C2=O)CCCCC1=O (stereo not drawn)
inactive: RXF 631 > 100 µM | DMS-273 > 100 µM | HOP-18 > 100 µM | XF498 9.2 µM | DMS-114 > 100 µM | SNB-78 > 100 µM | LXFL 529 > 100 µM

COc1ccc(C(c2ccccc2C(=O)O)c2ccc(OC)c3ccccc23)c2ccccc12
inactive: DMS-273 14 µM | HOP-18 3.39 µM | XF498 20.9 µM | KM-20L2 9.25 µM | DMS-114 7.06 µM | SNB-78 20.9 µM | LXFL 529 6.35 µM

CC(=O)c1cccc(NC(=O)/C(=N\NC(C)(C)C)c2c(O)c3ccccc3oc2=O)c1
inactive: DMS-273 > 100 µM | HOP-18 > 100 µM | XF498 > 100 µM | KM-20L2 > 100 µM | DMS-114 > 100 µM | LXFL 529 > 100 µM

From ChEMBL document CHEMBL1201862, “PubChem BioAssay data set” (2004)
